Laboratory results: patent publication US9034855B2, “Substituted phenylacetate and phenylpropane amides and use thereof” (Bayer Intellectual Property GmbH, priority 2010, dated 2015)

What was measured:
[1] = biological target: T1, human V1a receptor (Homo sapiens, UniProt P37288); assay: Cellular in vitro assay for determining the vasopressin receptor activity (aequorin luminescence, recombinant CHO cells), human V1a; assay type: cell-based; settings: CHO cells expressing aequorin, transfected with human V1a receptor; agonist [Arg8]-vasopressin; read-out: IC50 hV1a
T1 construct: expressed in transfected cells; host or cells: CHO K1 (ATCC), constitutively expressing modified aequorin
Description: (§1) B-1. Cellular In Vitro Assay for Determining the Vasopressin Receptor Activity
(§2) The identification of agonists and antagonists of the V1a and V2 vasopressin receptors from humans and rats and also the quantification of the activity of the substances described here takes place using recombinant cell lines. These cells derive originally from a hamster's ovary epithelial cell (Chinese Hamster Ovary, CHO K1, ATCC: American Type Culture Collection, Manassas, Va. 20108, USA). The test cell lines constitutively express a modified form of the calcium-sensitive photoprotein aequorin, which, after reconstitution with the cofactor coelenterazine, emits light when there are increases in the free calcium concentration (Rizzuto R., Simpson A. W., Brini M., Pozzan T.; Nature 358 (1992) 325-327). In addition, the cells are stably transfected with the human or rat V1a or V2 receptors. In the case of the Gs-coupling V2 receptors, the cells are stably transfected with a further gene, which codes for the promiscuous Gα16 protein (Amatruda T. T., Steele D. A., Slepak V. Z., Simon M A., Proc. Na. Acad. Sci. USA 88 (1991), 5587-5591), either independently or as a fusion gene. The resulting vasopressin receptor test cells react to stimulation of the recombinantly expressed vasopressin receptors by intracellular release of calcium ions, which can be quantified by the resulting aequorin luminescence using a suitable luminometer (Milligan G., Marshall F., Rees S., Trends in Pharmaco. Sci. 17 (1996) 235-237).
(§3) On the day before the assay, the cells are plated out in culture medium (DMEM, 10% FCS, 2 mM glutamine, 10 mM HEPES) in 384-well microtiter plates and kept in a cell incubator (96% atmospheric humidity, 5% v/v carbon dioxide, 37° C.). On the day of the assay, the culture medium is replaced by a Tyrode solution (140 mM sodium chloride, 5 mM potassium chloride, 1 mM magnesium chloride, 2 mM calcium chloride, 20 mM glucose, 20 mM HEPES), which additionally contains the cofactor coelenterazine (50 μM), and the microtiter plate is then incubated for a further 3-4 hours. The test substances in various concentrations are placed for 10 to 20 minutes in the wells of the microtiter plate before the agonist [Arg8]-vasopressin is added, and the resulting light signal is measured immediately in the luminometer. The IC50 values are calculated using the GraphPad PRISM computer program (Version 3.02).
(§4) Table A below lists representative IC50 values for the compounds according to the invention transfected with the human V1a or V2 receptor: […]

[2] = biological target: T2, human V2 receptor (Homo sapiens, UniProt P30518); assay: Cellular in vitro assay for determining the vasopressin receptor activity (aequorin luminescence, recombinant CHO cells), human V2; assay type: cell-based; settings: CHO cells expressing aequorin and Gα16, transfected with human V2 receptor; agonist [Arg8]-vasopressin; read-out: IC50 hV2
T2 construct: expressed in transfected cells; host or cells: CHO K1 (ATCC), constitutively expressing modified aequorin, co-transfected with promiscuous G-alpha-16
Description: as §1, §2, §3, §4

T1 sequence (P37288 whole entry): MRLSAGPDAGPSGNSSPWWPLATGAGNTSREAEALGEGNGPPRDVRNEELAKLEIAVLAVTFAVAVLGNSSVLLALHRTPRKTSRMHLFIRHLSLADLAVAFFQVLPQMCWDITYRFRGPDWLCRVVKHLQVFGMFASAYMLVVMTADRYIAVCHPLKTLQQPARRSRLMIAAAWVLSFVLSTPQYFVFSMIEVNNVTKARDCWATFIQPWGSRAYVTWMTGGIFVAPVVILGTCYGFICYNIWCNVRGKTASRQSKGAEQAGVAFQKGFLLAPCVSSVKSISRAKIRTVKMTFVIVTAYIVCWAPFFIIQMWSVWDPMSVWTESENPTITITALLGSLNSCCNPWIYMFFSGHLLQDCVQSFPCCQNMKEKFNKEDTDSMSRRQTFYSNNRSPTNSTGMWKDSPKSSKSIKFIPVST
T2 sequence (P30518 whole entry): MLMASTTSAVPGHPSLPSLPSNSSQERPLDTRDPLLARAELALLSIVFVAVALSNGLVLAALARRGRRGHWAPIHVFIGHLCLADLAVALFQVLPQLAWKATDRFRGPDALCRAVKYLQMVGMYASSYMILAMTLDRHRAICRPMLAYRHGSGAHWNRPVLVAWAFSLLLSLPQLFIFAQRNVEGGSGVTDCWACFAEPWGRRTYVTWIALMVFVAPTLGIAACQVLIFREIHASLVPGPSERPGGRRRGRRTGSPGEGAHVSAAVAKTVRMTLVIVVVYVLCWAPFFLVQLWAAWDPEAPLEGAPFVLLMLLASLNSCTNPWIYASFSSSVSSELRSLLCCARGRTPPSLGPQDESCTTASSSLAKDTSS

Structure (SMILES) | IC50 [1] [µM] | IC50 [2] [µM]
CCOC(=O)C1(NC(=O)C(NC(=O)Cn2nc(-c3ccc(Cl)cc3)n(C3CC3)c2=O)c2cccc(C(F)(F)F)c2)CC1 (racemic) [Example 5, Ethyl 1-({({[3-(4-chlorophenyl)-4-cyclopropyl-5-oxo-4,5-dihydro-1H-1,2,4-triazol-1-yl]acetyl}-amino) [3-(trifluoromethyl)phenyl]acetyl}amino)cyclopropanecarboxylate] | 0.042 | 1.17
COC(=O)C(C)(C)NC(=O)C[C@H](NC(=O)Cn1nc(-c2ccc(Cl)cc2)n(C[C@H](O)C(F)(F)F)c1=O)c1cccc(C(F)(F)F)c1 [Example 38, Methyl N-{(3S)-3-[({3-(4-chlorophenyl)-5-oxo-4-[(2S)-3,3,3-trifluoro-2-hydroxypropyl]-4,5-dihydro-1H-1,2,4-triazol-1-yl}acetyl)amino]-3-[3-(trifluoromethyl)phenyl]propanoyl}-2-methylalaninate] | 0.0328 | 0.0386
O=C(Cn1nc(-c2ccc(Cl)cc2)n(C[C@H](O)C(F)(F)F)c1=O)NC(C(=O)NCCOC(F)(F)F)c1cccc(C(F)(F)F)c1 (single isomer, unassigned) [Example 60] | 0.003 | 0.0197
O=C(C[C@H](NC(=O)Cn1nc(-c2ccc(Cl)cc2)n(C2CC2)c1=O)c1ccccc1C(F)(F)F)NCCO [Example 55, (3S)-3-({[3-(4-Chlorophenyl)-4-cyclopropyl-5-oxo-4,5-dihydro-1H-1,2,4-triazol-1-yl]acetyl}-amino)-N-(2-hydroxyethyl)-3-[2-(trifluoromethyl)phenyl]propanamide] | 0.006 | 0.569
CC(C)(CO)NC(=O)C(NC(=O)Cn1nc(-c2ccc(Cl)cc2)n(C[C@H](O)C(F)(F)F)c1=O)c1cccc(C(F)(F)F)c1 (single isomer, unassigned) [Example 42] | 0.038 | 0.158
O=C(O)CCNC(=O)C(NC(=O)Cn1nc(-c2ccc(Cl)cc2)n(C2CC2)c1=O)c1cccc(C(F)(F)F)c1 (racemic) [Example 16, N-{({[3-(4-Chlorophenyl)-4-cyclopropyl-5-oxo-4,5-dihydro-1H-1,2,4-triazol-1-yl]acetyl}amino) [3-(trifluoromethyl)phenyl]acetyl}-beta-alanine] | 0.524 | 0.262
NC(=O)CCNC(=O)C(NC(=O)Cn1nc(-c2ccc(Cl)cc2)n(C[C@H](O)C(F)(F)F)c1=O)c1cccc(C(F)(F)F)c1 (single isomer, unassigned) [Example 17] | 1.42 | 0.022
CC(C)(NC(=O)C(NC(=O)Cn1nc(-c2ccc(Cl)cc2)n(CCC(F)(F)F)c1=O)c1ccccc1C(F)(F)F)C(N)=O (racemic) [Example 32, N^2-{({[3-(4-Chlorophenyl)-5-oxo-4-(3,3,3-trifluoropropyl)-4,5-dihydro-1H-1,2,4-triazol-1-yl]acetyl}amino) [2-(trifluoromethyl)phenyl]acetyl}-2-methylalaninamide] | 0.0071 | 1.27
C[C@](NC(=O)Cn1nc(-c2ccc(Cl)cc2)n(C[C@H](O)C(F)(F)F)c1=O)(C(=O)NCCC(N)=O)c1cccc(C(F)(F)F)c1 [Example 19, N^3-{(2R)-2-[({3-(4-Chlorophenyl)-5-oxo-4-[(2S)-3,3,3-trifluoro-2-hydroxypropyl]-4,5-dihydro-1H-1,2,4-triazol-1-yl}acetyl)amino]-2-[3-(trifluoromethyl)phenyl]propanoyl}-beta-alaninamide] | 0.0006 | 0.0011
COCCn1c(-c2ccc(Cl)s2)nn(CC(=O)NC(C(=O)NC(C)(C)CO)c2cccc(C(F)(F)F)c2)c1=O (single isomer, unassigned) [Example 43, 2-({[3-(5-Chloro-2-thienyl)-4-(2-methoxyethyl)-5-oxo-4,5-dihydro-1H-1,2,4-triazol-1-yl]acetyl}amino)-N-(1-hydroxy-2-methylpropan-2-yl)-2-[3-(trifluoromethyl)phenyl]acetamide] | 0.06 | 1.6
CC(C)(NC(=O)C(NC(=O)Cn1nc(-c2ccc(Cl)cc2)n(Cc2ccccc2F)c1=O)c1cccc(Cl)c1Cl)C(N)=O (racemic) [Example 36, N^2-[({[3-(4-Chlorophenyl)-4-(2-fluorobenzyl)-5-oxo-4,5-dihydro-1H-1,2,4-triazol-1-yl]acetyl}-amino)(2,3-dichlorophenyl)acetyl]-2-methylalaninamide] | 0.0882 | 0.78
O=C(Cn1nc(-c2ccc(Cl)cc2)n(C[C@H](O)C(F)(F)F)c1=O)NC(C(=O)NCCOC(F)(F)F)c1cccc(C(F)(F)F)c1 (single isomer, unassigned) [Example 59] | 0.136 | 0.061
NC(=O)CCNC(=O)C(NC(=O)Cn1nc(-c2ccc(Cl)cc2)n(C[C@H](O)C(F)(F)F)c1=O)c1cccc(C(F)(F)F)c1 (single isomer, unassigned) [Example 18] | 0.0012 | 0.0019
COC(=O)C(C)(C)NC(=O)C(NC(=O)Cn1nc(-c2ccc(Cl)cc2)n(C2CC2)c1=O)c1cccc(C(F)(F)F)c1 (racemic) [Example 11, Methyl N-{({[3-(4-chlorophenyl)-4-cyclopropyl-5-oxo-4,5-dihydro-1H-1,2,4-triazol-1-yl]acetyl}-amino)[3-(trifluoromethyl)phenyl]acetyl}-2-methylalaninate] | 0.028 | 0.497
O=C(Cn1nc(-c2ccc(Cl)cc2)n(C[C@H](O)C(F)(F)F)c1=O)NC(C(=O)NC1(C(=O)O)CC1)c1cccc(C(F)(F)F)c1 (single isomer, unassigned) [Example 4] | 0.0019 | 0.0041
CC(C)(NC(=O)C(NC(=O)Cn1nc(-c2ccc(Cl)cc2)n(C2CC2)c1=O)c1cccc(C(F)(F)F)c1)C(=O)O (racemic) [Example 12, N-{({[3-(4-Chlorophenyl)-4-cyclopropyl-5-oxo-4,5-dihydro-1H-1,2,4-triazol-1-yl]acetyl}amino) [3-(trifluoromethyl)phenyl]acetyl}-2-methylalanine] | 0.024 | 0.182
